Laboratory results reported in US10670605B2, “Cysteine reactive probes and uses thereof” (The Scripps Research Institute, priority 2015, dated 2020).

Tests used:
Assay in all cases: Competitive isoTOP-ABPP in situ (fragment-treated cells)
Assay type in all cases: cell-based
Conditions in all cases: 200 μM, insitu, 231
[1] = target: cysteines in MDA-MB-231 and Ramos cells (Homo sapiens, UniProt P83731)
[2] = target: T1, cysteines in MDA-MB-231 and Ramos cells (Homo sapiens, UniProt Q13418)
T1 sequence (Q13418 1-452): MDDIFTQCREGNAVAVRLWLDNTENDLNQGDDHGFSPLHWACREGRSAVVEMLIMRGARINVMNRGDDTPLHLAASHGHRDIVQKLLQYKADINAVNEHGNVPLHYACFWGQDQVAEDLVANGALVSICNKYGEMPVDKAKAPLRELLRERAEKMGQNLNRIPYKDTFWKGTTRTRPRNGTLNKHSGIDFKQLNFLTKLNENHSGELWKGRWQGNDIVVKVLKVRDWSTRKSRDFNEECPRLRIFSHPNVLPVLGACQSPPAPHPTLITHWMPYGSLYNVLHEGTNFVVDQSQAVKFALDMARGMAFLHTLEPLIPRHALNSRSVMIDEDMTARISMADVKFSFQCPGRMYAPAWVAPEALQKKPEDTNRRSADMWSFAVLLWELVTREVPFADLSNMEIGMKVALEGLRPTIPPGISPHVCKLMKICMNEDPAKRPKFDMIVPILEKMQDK

[3] = target: T2, cysteines in MDA-MB-231 and Ramos cells (Homo sapiens, UniProt P13667)
T2 sequence (P13667 21-645): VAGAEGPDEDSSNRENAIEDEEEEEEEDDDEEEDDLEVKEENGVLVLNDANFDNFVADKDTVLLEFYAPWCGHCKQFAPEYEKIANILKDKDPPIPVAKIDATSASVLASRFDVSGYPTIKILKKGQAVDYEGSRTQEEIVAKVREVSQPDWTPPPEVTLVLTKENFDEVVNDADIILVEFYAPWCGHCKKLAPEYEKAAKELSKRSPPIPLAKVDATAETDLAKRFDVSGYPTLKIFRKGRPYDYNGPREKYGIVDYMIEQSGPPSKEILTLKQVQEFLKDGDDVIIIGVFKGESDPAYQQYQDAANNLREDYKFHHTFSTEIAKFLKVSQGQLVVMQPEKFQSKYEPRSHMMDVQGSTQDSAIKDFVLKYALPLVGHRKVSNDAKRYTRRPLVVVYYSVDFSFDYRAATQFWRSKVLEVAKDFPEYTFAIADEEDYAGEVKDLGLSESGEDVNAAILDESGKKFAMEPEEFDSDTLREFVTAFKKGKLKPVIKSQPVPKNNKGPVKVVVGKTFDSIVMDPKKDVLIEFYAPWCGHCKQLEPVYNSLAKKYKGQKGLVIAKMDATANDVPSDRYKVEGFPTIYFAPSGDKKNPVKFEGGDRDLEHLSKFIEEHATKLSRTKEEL

[4] = target: T3, cysteines in MDA-MB-231 and Ramos cells (Homo sapiens, UniProt Q29RF7)
T3 sequence (Q29RF7 1-1337): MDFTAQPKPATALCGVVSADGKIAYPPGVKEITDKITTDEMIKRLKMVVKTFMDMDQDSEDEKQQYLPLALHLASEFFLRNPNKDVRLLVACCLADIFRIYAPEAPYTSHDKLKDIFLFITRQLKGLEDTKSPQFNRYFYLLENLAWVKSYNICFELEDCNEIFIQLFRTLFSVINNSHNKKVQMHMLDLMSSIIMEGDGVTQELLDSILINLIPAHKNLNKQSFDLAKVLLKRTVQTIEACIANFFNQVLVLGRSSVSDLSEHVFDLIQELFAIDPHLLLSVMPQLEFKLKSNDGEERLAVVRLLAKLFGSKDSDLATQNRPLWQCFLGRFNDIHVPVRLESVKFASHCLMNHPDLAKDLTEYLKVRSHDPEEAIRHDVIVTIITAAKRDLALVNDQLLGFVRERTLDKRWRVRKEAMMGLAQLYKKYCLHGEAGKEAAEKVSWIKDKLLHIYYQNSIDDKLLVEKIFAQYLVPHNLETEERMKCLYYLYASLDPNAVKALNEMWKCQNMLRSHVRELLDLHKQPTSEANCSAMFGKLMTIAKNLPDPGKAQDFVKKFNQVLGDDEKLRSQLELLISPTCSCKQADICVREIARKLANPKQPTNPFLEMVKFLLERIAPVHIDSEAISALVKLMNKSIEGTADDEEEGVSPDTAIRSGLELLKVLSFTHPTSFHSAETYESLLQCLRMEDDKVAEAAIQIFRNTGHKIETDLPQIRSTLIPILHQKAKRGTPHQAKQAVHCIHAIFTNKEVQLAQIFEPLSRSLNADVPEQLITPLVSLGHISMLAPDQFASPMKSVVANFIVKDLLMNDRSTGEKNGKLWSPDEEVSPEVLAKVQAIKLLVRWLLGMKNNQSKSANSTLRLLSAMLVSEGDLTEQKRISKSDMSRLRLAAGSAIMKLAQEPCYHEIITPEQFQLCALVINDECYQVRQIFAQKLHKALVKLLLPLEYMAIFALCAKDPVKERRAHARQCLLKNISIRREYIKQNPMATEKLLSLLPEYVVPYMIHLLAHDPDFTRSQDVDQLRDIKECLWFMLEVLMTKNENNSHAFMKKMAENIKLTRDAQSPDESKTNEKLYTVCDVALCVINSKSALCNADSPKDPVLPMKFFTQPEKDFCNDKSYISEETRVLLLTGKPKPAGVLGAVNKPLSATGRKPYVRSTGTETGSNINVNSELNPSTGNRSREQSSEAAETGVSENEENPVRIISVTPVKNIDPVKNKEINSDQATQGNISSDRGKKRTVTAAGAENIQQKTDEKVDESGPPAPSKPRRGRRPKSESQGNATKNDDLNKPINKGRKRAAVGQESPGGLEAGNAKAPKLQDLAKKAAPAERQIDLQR

[5] = target: T4, cysteines in MDA-MB-231 and Ramos cells (Homo sapiens, UniProt Q9Y3A3)
T4 sequence (Q9Y3A3 1-225): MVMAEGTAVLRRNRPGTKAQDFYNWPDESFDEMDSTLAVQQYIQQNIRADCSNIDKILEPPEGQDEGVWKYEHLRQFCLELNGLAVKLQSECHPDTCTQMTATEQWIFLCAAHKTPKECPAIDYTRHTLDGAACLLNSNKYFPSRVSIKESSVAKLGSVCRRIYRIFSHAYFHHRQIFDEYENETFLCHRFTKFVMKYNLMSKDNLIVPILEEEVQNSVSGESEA

Compound: C=CC(=O)Nc1cc(F)c(N2CCN(C(=O)OC(C)(C)C)CC2)c(F)c1 [compound 38]
- isoTOP-ABPP ratio P83731_C6 [1]: 2.1
- isoTOP-ABPP ratio Q13418_C346 [2]: 1.0
- isoTOP-ABPP ratio P13667_C206 [3]: 0.9
- isoTOP-ABPP ratio P13667_C555 [3]: 0.8
- isoTOP-ABPP ratio Q29RF7_C242 [4]: 1.0
- isoTOP-ABPP ratio Q9Y3A3_C134 [5]: 1.0
